The text below walks through data of the supplement of paper PMC6580486.

Molecules are shown by their SMILES. Bounds are passed on as bounds.
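Note: alveolar rhabdomyosarcoma tumor culture.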

The subject of this assay is U23674 (mouse alveolar rhabdomyosarcoma primary culture).
As for `CS(=O)(=O)CCNCc1ccc(-c2ccc3ncnc(Nc4ccc(OCc5ccccc5)c(C(F)(F)F)c4)c3c2)o1`, the IC50 cell viability is over 10 µM.

In turn, `CN(C)CCOc1ccc(-c2cc(-c3ccc4c(c3)CCC4=NO)c(-c3ccncc3)o2)cc1` yielded an IC50 cell viability of over 10 µM.

Molecule `CC(=O)Nc1cccc(C#Cc2cncnc2Nc2ccc(OCc3cccc(F)c3)c(Cl)c2)c1` gave an IC50 cell viability of over 10 µM.

The molecule `Fc1ccc(-c2ncn(CCCN3CCOCC3)c2-c2ccncc2)cc1` displayed an IC50 cell viability of over 10 µM.

`COc1c(C(N)=O)cc(-c2ccc(Cl)cc2)cc1-c1ccc(S(N)(=O)=O)cc1`: the IC50 cell viability is over 10 µM.

`CN(C)CCCNc1nccc(-c2c(-c3ccc(F)cc3)nn3cc(C(F)(F)F)ccc23)n1` showed an IC50 cell viability of 2.2 µM.

On to `CCNC(=O)O[C@H]1CN[C@H](C#Cc2cc3ncnc(Nc4ccc(OCc5cccc(F)c5)c(Cl)c4)c3s2)C1`, for which the IC50 cell viability was over 10 µM.

In the case of `COc1cccc(-c2c[nH]c3c(N/N=C/c4ccncc4)ncnc23)c1`, the IC50 cell viability is over 10 µM.

With `CNC(=O)c1sc(-n2cnc3cc(OC)c(OC)cc32)cc1OCc1ccccc1C(F)(F)F`, the IC50 cell viability was over 10 µM.

The molecule `CC1=C(C(=O)Nc2ccc3n[nH]c(C)c3c2)C(c2ccc(C(F)(F)F)cc2)CC(=O)N1` (configuration not stated) displayed an IC50 cell viability of over 10 µM.

Molecule `N#Cc1c(NC(=O)CN2CCOCC2)sc2c1CCCC2` showed an IC50 cell viability of over 10 µM.

`COC(=O)Nc1nc2ccc(Oc3ccc(NC(=O)Nc4cccc(Cl)c4)cc3)cc2[nH]1` showed an IC50 cell viability of over 10 µM.

The molecule `COc1ccc(-c2cc(-c3cn[nH]c3-c3ccccn3)ccn2)cc1` returned an IC50 cell viability of over 10 µM.

Regarding `COc1ccc2cc(-c3c(-c4ccncc4)nc(-c4ccc([S+](C)[O-])cc4C)n3C)ccc2c1` (configuration not stated), the IC50 cell viability is over 10 µM.

Consider `O=C(O[C@H]1CN[C@H](C#Cc2cc3ncnc(Nc4ccc(Cc5ccccc5)cc4)c3s2)C1)N1CCOCC1`, for which the IC50 cell viability is over 10 µM.

`CS(=O)(=O)CCNCc1ccoc1-c1ccc2ncnc(Nc3ccc(OCc4ccccc4)cc3)c2c1` displayed an IC50 cell viability of over 10 µM.

Molecule `Nc1nonc1-c1nc2cnccc2n1C1CCCCC1` had an IC50 cell viability of over 10 µM.

Molecule `CC1=C(C(=O)Nc2ccc3[nH]ncc3c2)C(c2ccc3ccccc3c2)CC(=O)N1` (configuration not stated) showed an IC50 cell viability of over 10 µM.

`NS(=O)(=O)c1cccc(Nc2cc(-c3ccc(F)cc3)[nH]n2)c1` showed an IC50 cell viability of over 10 µM.

In turn, `Clc1ccc(-c2nn3ncccc3c2-c2ccnc(Nc3ccccc3)n2)cc1` came in with an IC50 cell viability of over 10 µM.

`COc1cc(/C=N/Nc2ncnc3[nH]ncc23)ccc1O` showed an IC50 cell viability of over 10 µM.

With `COc1cc2c(cc1Nc1nc(N3CCc4ccccc43)c3cc[nH]c3n1)N(C(=O)CN(C)C)CC2`, the IC50 cell viability is 0.05 µM.

As to `C[C@@H](Oc1cc(-n2cnc3ccc(OCC4CCN(C)CC4)cc32)sc1C(N)=O)c1ccccc1Cl`, the IC50 cell viability is 1.3 µM.

Molecule `O=C(Nc1n[nH]c2nc(-c3ccc(O)cc3)c(Br)cc12)C1CC1` yielded an IC50 cell viability of over 10 µM.

Regarding `Cc1cc(-c2ccccn2)cc(C)c1/C=C/c1cncc(-c2nn[nH]n2)c1`, the IC50 cell viability is over 10 µM.

As to `N#Cc1ccc2c(-c3ccnc(NC4CC4)n3)c(-c3ccc(F)cc3)nn2c1`, the IC50 cell viability was over 10 µM.

Turning to `CN1CCC(n2cnc(-c3ccc(F)cc3)c2-c2ccnc(N)n2)CC1`, the IC50 cell viability is over 10 µM.

The molecule `COC(=O)Nc1nc2ccc(Oc3ccc(NC(=O)Nc4cccc(Br)c4)cc3)cc2[nH]1` returned an IC50 cell viability of over 10 µM.

In turn, `O=C(Nc1n[nH]c2nc(-c3ccco3)c(Br)cc12)C1CC1` had an IC50 cell viability of over 10 µM.

Molecule `O=C(Nc1ccc(Oc2ccc3nc(NC(=O)c4ccccc4)[nH]c3c2)cc1)Nc1cc(C(F)(F)F)ccc1F` registered an IC50 cell viability of over 10 µM.

`Nc1nonc1-c1nc2cnccc2n1C1CC1`: the IC50 cell viability was over 10 µM.

As to `Cc1ccc(C(=O)NC(C)C)cc1-c1ccc(C(=O)NCC2CC2)cc1`, the IC50 cell viability is over 10 µM.

In the case of `Cc1ccc2c(-c3ccnc(Nc4ccc5c(c4)OCCO5)n3)c(-c3ccc(C(F)(F)F)cc3)nn2n1`, the IC50 cell viability was over 10 µM.

In turn, `CCS(=O)(=O)c1ccc(OC)c(Nc2ncc(-c3cccc(-c4ccccc4F)c3)o2)c1` gave an IC50 cell viability of over 10 µM.

`CCc1cccc(CC)c1/C=C/c1cncc(C(=O)NC)c1` returned an IC50 cell viability of over 10 µM.

On to `COc1cc(N2CCN(C(C)C)CC2)ccc1Nc1nc(Nc2cccc3ncccc23)c2cc[nH]c2n1`, for which the IC50 cell viability was over 10 µM.

`CN1CCC(n2cnc(-c3ccc(F)cc3)c2-c2ccnc(Nc3ccccc3)n2)CC1`: the IC50 cell viability was over 10 µM.

`Cc1cccc(Nc2ncc(-c3ccccc3)o2)c1` gave an IC50 cell viability of over 10 µM.

`COc1cc(Nc2ncc(-c3ccccc3)o2)cc(OC)c1OC` displayed an IC50 cell viability of over 10 µM.

On to `COc1cc(/C=N/Nc2ncnc3c2cnn3C(C)C)ccc1O`, for which the IC50 cell viability is over 10 µM.

As for `N#Cc1c(NC(=O)c2cccc3ccccc23)sc2c1CCCC2`, the IC50 cell viability stood at 3.5 µM.

Molecule `Cc1ccc(NC(=O)c2ccoc2)cc1-c1ccc(C(=O)NCC2CC2)cc1` yielded an IC50 cell viability of over 10 µM.

For the molecule `Fc1ccc(-c2nc3n(c2-c2ccncc2)CCS3)cc1`, the IC50 cell viability was over 10 µM.

In turn, `NC(=O)c1ccc2c(-c3ccnc(NCCCO)n3)c(-c3ccc(F)cc3)nn2c1` came in with an IC50 cell viability of over 10 µM.

With `COc1ccc2cc(-c3c(-c4ccncc4)nc(-c4ccc(S(C)(=O)=O)cc4C)n3C)ccc2c1`, the IC50 cell viability was over 10 µM.

Consider `CCOc1ccc2c(-c3ccnc(Nc4cccc(C(F)(F)F)c4)n3)cnn2n1`, for which the IC50 cell viability is over 10 µM.

`N#Cc1c(NC(=O)c2ccc(F)cc2)sc2c1CCCC2` gave an IC50 cell viability of over 10 µM.

In turn, `COC(=O)c1sc(-n2cnc3cc(OC)c(OC)cc32)cc1OCc1ccccc1C(F)(F)F` returned an IC50 cell viability of over 10 µM.

On to `c1ccc(-c2[nH]ncc2-c2ccnc(-c3ccc(OCCN4CCOCC4)cc3)c2)nc1`, for which the IC50 cell viability is over 10 µM.

Regarding `O=C1Nc2ccc(-c3cccnc3)cc2C1=Cc1cc(Br)c(O)c(Br)c1`, the IC50 cell viability was over 10 µM.

Regarding `CN(C)C(=O)O[C@H]1CN[C@H](C#Cc2cc3ncnc(Nc4ccc(OCc5cccc(F)c5)c(Cl)c4)c3s2)C1`, the IC50 cell viability is over 10 µM.

For `NS(=O)(=O)c1ccc(N=Nc2c(O)[nH]c3ccc(-c4cnco4)cc23)cc1`, the IC50 cell viability is over 10 µM.

In turn, `COc1cccc(COc2cc(-n3cnc4ccccc43)sc2C(N)=O)c1` showed an IC50 cell viability of over 10 µM.

`CCS(=O)(=O)c1ccc(OC)c(Nc2ncc(-c3cccc(F)c3)o2)c1` came in with an IC50 cell viability of over 10 µM.

As for `COc1ccc(-c2nn3ncccc3c2-c2ccnc(Nc3ccc(F)c(F)c3)n2)cc1`, the IC50 cell viability is over 10 µM.

Molecule `Cc1ccc2c(-c3ccnc(Nc4ccccc4)n3)c(-c3ccc(F)cc3)nn2n1` returned an IC50 cell viability of over 10 µM.

The molecule `COC(=O)Nc1nc2ccc(Oc3cccc(NC(=O)Nc4cc(C(F)(F)F)ccc4F)c3)cc2[nH]1` returned an IC50 cell viability of over 10 µM.

In turn, `COc1ccc(-c2cc3c(N)ncnc3o2)cc1` showed an IC50 cell viability of over 10 µM.

With `CS(=O)(=O)CCNCc1nc(-c2ccc3ncnc(Nc4ccc(F)c(Cl)c4)c3c2)cs1`, the IC50 cell viability is over 10 µM.

`CCn1c(-c2nonc2N)nc2c(C#CC(C)(C)O)nc(OCCNC)cc21`: the IC50 cell viability stood at 1.3 µM.

As for `CC(C)c1ccc(Nc2nccc(-c3cnn4ncccc34)n2)cc1`, the IC50 cell viability was over 10 µM.

Take `COc1ccc(COc2ccc(Cc3cnc(N)nc3N)cc2OC)cc1`: the IC50 cell viability was over 10 µM.
